In patent publication US10399945B2, “Tetrahydronaphthyl urea derivative” (MOCHIDA PHARMACEUTICAL CO., LTD., priority 2017, dated 2019) one finds IC50 data, which are given here for twelve compounds.

Molecules are shown by their SMILES.

Sequence of Human TrkA Protein (P04629 33-796): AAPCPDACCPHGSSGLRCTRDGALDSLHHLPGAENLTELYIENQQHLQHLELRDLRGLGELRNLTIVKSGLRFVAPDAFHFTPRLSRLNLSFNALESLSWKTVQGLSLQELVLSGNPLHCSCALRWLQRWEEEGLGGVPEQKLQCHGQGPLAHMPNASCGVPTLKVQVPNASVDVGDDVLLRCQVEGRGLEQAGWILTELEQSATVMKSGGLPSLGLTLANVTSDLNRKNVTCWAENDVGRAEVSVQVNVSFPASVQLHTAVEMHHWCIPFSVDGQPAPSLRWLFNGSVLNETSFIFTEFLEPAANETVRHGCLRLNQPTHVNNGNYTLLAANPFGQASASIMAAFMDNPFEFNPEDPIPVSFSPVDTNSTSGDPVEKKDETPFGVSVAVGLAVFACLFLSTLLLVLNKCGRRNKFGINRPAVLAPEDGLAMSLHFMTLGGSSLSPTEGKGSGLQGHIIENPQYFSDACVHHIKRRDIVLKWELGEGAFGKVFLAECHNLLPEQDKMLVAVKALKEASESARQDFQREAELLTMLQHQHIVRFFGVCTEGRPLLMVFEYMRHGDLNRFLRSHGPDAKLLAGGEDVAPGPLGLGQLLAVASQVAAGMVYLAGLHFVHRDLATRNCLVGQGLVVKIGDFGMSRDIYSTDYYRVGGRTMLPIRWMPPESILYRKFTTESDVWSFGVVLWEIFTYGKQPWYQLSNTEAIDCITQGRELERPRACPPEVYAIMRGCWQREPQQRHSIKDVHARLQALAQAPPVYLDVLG

The test addresses Human TrkA Protein (Homo sapiens (Human), UniProt P04629). The experiment in a line: Evaluation of Binding Activity for Human TrkA Protein (TrkA LanthaScreen Eu Kinase Binding Assay). The conditions noted are these: TrkA enzyme, Kinase Tracer 236, TR-FRET, 60 minutes at room temperature. Here is the method: (Pharmacological Experimental Example 1): Evaluation of Binding Activity for Human TrkA Protein
Measurement was carried out using TrkA LanthaScreen (registered trademark) Eu Kinase Binding Assay (ThermoFisher SCIENTIFIC). To a 384 well plate (Corning), 2.5 μL of the test compound having various concentrations and diluted with Kinase buffer (ThermoFisher SCIENTIFIC) and 2.5 μL of 15 nM TrkA enzyme (ThermoFisher SCIENTIFIC) were added. Moreover, […] Eu-anti-His Tag antibody (ThermoFisher SCIENTIFIC) and 5 μL of 30 nM Kinase (registered trademark) Tracer 236 (ThermoFisher SCIENTIFIC) were added, followed by reaction at room temperature for 60 minutes. After the reaction, the fluorescence intensity of Europium (Emission wavelength 615 nm) and TR-FRET (Emission wavelength 665 nm) with an excitation wavelength of 340 nm were measured with EnVision 2100 (PerkinElmer) to calculate the fluorescence ratio as the amount of the test compound and the TrkA enzyme bonded. The inhibitory activity (IC50 value) of each test compound was calculated with the fluorescence ratio of the well to which a solvent was added instead of the test compound being 0% and the fluorescence ratio of the well without addition of the TrkA protein being 100%.
In Table 1, […] mean Compounds 1 to 62 synthesized in accordance with Examples 1 to 62 described later.
For orientation: Time-resolved FRET reads energy transfer from a long-lived donor to a nearby acceptor.
`Cc1cnc(-c2ccccc2)c(NC(=O)N[C@@H]2c3cc(F)c(F)cc3C(C)(C)C[C@H]2O)c1` (racemic) [Compound 37, rac-1-((1R,2R)-6,7-difluoro-2-hydroxy-4,4-dimethyl-1,2,3,4-tetrahydronaphthalen-1-yl)-3-(5-methyl-2-phenylpyridin-3-yl)urea] showed an IC50 of at most 50 nM.

In the case of `Cc1cc(NC(=O)N[C@@H]2c3cc(F)c(F)cc3C(C)(C)C[C@H]2O)c(C2CCOCC2)nc1-c1cn[nH]c1` (racemic) [Compound 61, rac-1-((1R,2R)-6,7-difluoro-2-hydroxy-4,4-dimethyl-1,2,3,4-tetrahydronaphthalen-1-yl)-3-(5-methyl-6-(1H-pyrazol-4-yl)-2-(tetrahydro-2H-pyran-4-yl)pyridin-3-yl)urea], the IC50 was in the range of 50 to 1000 nM.

`Cc1cc(NC(=O)N[C@@H]2c3ccccc3C(C)(C)C[C@H]2O)c(-c2ccccc2)nc1-c1ccc(O)nc1` (racemic) [Compound 6, rac-1-(6′-hydroxy-3-methyl-6-phenyl-[2,3′-bipyridin]-5-yl)-3-((1R,2R)-2-hydroxy-4,4-dimethyl-1,2,3,4-tetrahydronaphthalen-1-yl)urea]: the IC50 is at most 50 nM. `Cc1cc(NC(=O)N[C@@H]2c3ccccc3C(C)(C)C[C@H]2O)c(-c2ccccc2)nc1C(N)=O` (racemic) [Compound 24, rac-5-(3-((1R,2R)-2-hydroxy-4,4-dimethyl-1,2,3,4-tetrahydronaphthalen-1-yl)ureido)-3-methyl-6-phenylpicolinamide] returned an IC50 of at most 50 nM. The same measure for `Cc1cc(NC(=O)N[C@@H]2c3ccccc3C(C)(C)C[C@H]2O)c(-c2ccccc2)nc1-c1ccnc(C(F)(F)F)c1` [Compound 17, 1-((1R,2R)-2-hydroxy-4,4-dimethyl-1,2,3,4-tetrahydronaphthalen-1-yl)-3-(3-methyl-6-phenyl-2′-(trifluoromethyl)-[2,4′-bipyridin]-5-yl)urea]: at most 50 nM; for `Cc1nnc(CNC(=O)c2nc(-c3ccccc3)c(NC(=O)N[C@@H]3c4cc(F)c(F)cc4C(C)(C)C[C@H]3O)cc2C)o1` (racemic) [Compound 41a]: at most 50 nM. The same measure for `Cc1ncc(-c2nc(-c3ccccc3)c(NC(=O)N[C@@H]3c4ccc(F)cc4C(C)(C)C[C@H]3O)cc2C)cn1` (racemic) [Compound 35a]: at most 50 nM; for `Cc1cc(NC(=O)N[C@@H]2c3ccccc3C(C)(C)C[C@H]2O)c(-c2ccccc2)nc1-c1cnn(C)c1` [Compound 10, 1-((1R,2R)-2-hydroxy-4,4-dimethyl-1,2,3,4-tetrahydronaphthalen-1-yl)-3-(5-methyl-6-(1-methyl-1H-pyrazol-4-yl)-2-phenylpyridin-3-yl)urea]: at most 50 nM. The compound `Cc1ncc(-c2nc(-c3ccccc3)c(NC(=O)N[C@@H]3c4cc(F)ccc4C(C)(C)C[C@H]3O)cc2C)cn1` (racemic) [Compound 34a] had an IC50 of at most 50 nM. Compound `Cc1cc(NC(=O)N[C@@H]2c3ccccc3C(C)(C)C[C@H]2O)c(-c2ccccc2)nc1-c1cnc(C(C)(C)O)nc1` [Compound 21, 1-((1R,2R)-2-hydroxy-4,4-dimethyl-1,2,3,4-tetrahydronaphthalen-1-yl)-3-(6-(2-(2-hydroxypropan-2-yl)pyrimidin-5-yl)-5-methyl-2-phenylpyridin-3-yl)urea] gave an IC50 of at most 50 nM. In the case of `Cc1cc(NC(=O)N[C@@H]2c3cc(F)c(F)cc3C(C)(C)C[C@H]2O)c(-c2ccccc2)nc1-c1ccn(C)n1` (racemic) [Compound 48a] it was at most 50 nM; in that of `Cc1cc(NC(=O)N[C@@H]2c3ccc(Br)cc3C(C)(C)C[C@H]2O)c(-c2ccccc2)nc1C(N)=O` (racemic) [Compound 23, rac-5-(3-((1R,2R)-6-bromo-2-hydroxy-4,4-dimethyl-1,2,3,4-tetrahydronaphthalen-1-yl)ureido)-3-methyl-6-phenylpicolinamide], at most 50 nM.

What is called IC50 is the midpoint of a concentration-inhibition curve.
